Consider ten substances from patent publication US8680065B2, “Oligonucleotides of human endogenous retrovirus 9 (ERV-9) long terminal repeat (LTR) and methods of use” (The United States of America, as represented by the …, priority 2008, dated 2014).

One series deals with MCF-7 cells. The series can be described thus: Tumor cell proliferation, siRNA in LIPOFECTAMINE, 72 hours. It counts as cell-based, human. The settings on record: siRNA 100 nM. As to the method: (§1) FIG. 20 is a pair of graphs showing the effect of ERV-9 LTR U3 region siRNA (SEQ ID NOs: 13 and 14), alone or in combination with VP16, on proliferation of MDA-231 (top) and MCF-7 (bottom) cells. 4×10^4 cells were treated with siRNAs formulated in LIPOFECTAMINE™ at 100 nM for 72 hours. RRM2 is a combination of three siRNAs (SEQ ID NOs: 15, 16, and 17) against ribonucleotide reductase subunit M2. Relative cell proliferation levels were expressed as percentage of non-treated control.
(§2) 4×10^4 cells were treated with siRNAs formulated in LIPOFECTAMINE™ at 100 nM for 72 hours. […] For RRM2, a combination of the 3 siRNAs was used at final concentration of 100 nM. Relative cell proliferation levels were expressed as percentage of non-treated control. Student's t-test was used for statistics.

Series [1] concerns MDA-231 cells. Described as above. The settings on record: siRNA 100 nM. The series is classed as cell-based, human. How it is done: as §1, §2
The subject of series [2] is MDA-231 cells (a breast cancer cell line). As to the kind of experiment: Cancer cell proliferation, oligonucleotide in LIPOFECTAMINE, 48 hours, direct cell counting. It counts as cell-based, human. The settings on record: oligonucleotide 10, 20 or 30 μg/ml, P<0.05.
A further series has as its system LNcaP cells. The series can be described thus: Cancer cell proliferation, oligonucleotide in combination with VP16, 48 hours. It counts as cell-based, human. The note with it: oligonucleotide 15 μg/ml with VP16 30 ng/ml and 50 ng/ml. How it is done: FIG. 10 is a graph showing proliferation of LNcaP cells treated with ERV-9 U3 sense or antisense oligonucleotide (SEQ ID NOs: 1 and 2, respectively), in combination with VP16. Cells (4×10^4) were treated with oligonucleotide (15 μg/ml) alone or in combination with the concentrations of VP16 shown for 48 hours.
To test the effect of treating cancer cells with the combination of ERV-9 U3 oligonucleotide and VP16, six different cancer cell lines were analyzed: HT1080, (FIG. 7); MDA-231 (FIG. 8); K562 (FIG. 9); LNcaP (FIG. 10); HepG2 (FIG. 11); and MCF-7 (FIG. 12). Cells (4×10^4) were treated with 15 μg/ml ERV-9 U3 sense (SEQ ID NO: 1) or antisense (SEQ ID NO: 2) oligonucleotide alone or in combination with VP16 at a concentration of 30 ng/ml or 50 ng/ml. After 48 hours, cell proliferation was assessed by direct cell counting. Cell proliferation levels were expressed relative to GFP oligonucleotide control in the absence of VP16.

Series [3] concerns LNcaP cells (a prostate cancer cell line). As to the kind of experiment: Cancer cell proliferation, oligonucleotide in LIPOFECTAMINE, 48 hours, direct cell counting. The note with it: oligonucleotide 10, 20 or 30 μg/ml. The series is classed as cell-based, human.
Series [4] deals with MDA-231 cells. As to the kind of experiment: Cancer cell proliferation, oligonucleotide in combination with VP16, 48 hours. The series is classed as cell-based, human. The settings on record: oligonucleotide 15 μg/ml with VP16 30 ng/ml and 50 ng/ml, P<0.05.
A further series concerns tumor. The settings on record: U.S. Pat. Nos. 7,256,284 and 6,946,447; Ozawa et al. 2004; cited from earlier work.
Series [5] relates to MDA-231 cells. The series can be described thus: Cancer cell proliferation, U3 and U5 oligonucleotides, 72 hours. The series is classed as cell-based, human. The settings on record: 20 μg/ml. How it is done:
FIG. 17 is a graph showing the effect of sense and antisense ERV-9 U3 and (SEQ ID NOs: 1, 2, 7, 8, 9, and 10) and U5 (SEQ ID NOs: 11 and 12) oligonucleotides on proliferation of MDA-231 cells. Cells (4×10^4) were treated with oligonucleotide formulated in LIPOFECTAMINE™ at a concentration of 20 μg/ml for 72 hours. GFP sense oligonucleotide and G3139, GRN163 and MDM2 antisense oligonucleotides were included as controls. Cell proliferation levels were expressed relative to cells transfected with GFP oligonucleotide. All U3 and U5 sense and antisense oligonucleotides inhibited cell proliferation better than GFP control and the G3139, GRN163 and MDM2 antisense oligonucleotides.
(§3) HT1080 or MDA-231 cells (4×10^4 cells) were treated with ERV-9 LTR (U3 or U5) sense or antisense oligonucleotides formulated in LIPOFECTAMINE™ at a concentration of 20 μg/ml for 72 hours. GFP sense oligonucleotide was used as a control to measure the non-specific cytotoxicity of phosphorothioates-based oligonucleotides. Relative cell proliferation levels were expressed as percentage of GFP oligonucleotide transfected control. The results are shown in FIG. 16 (HT1080 cells) and FIG. 17 (MDA-231 cells).

The subject of another series is HT1080 cells. The description is as above. It counts as cell-based, human. The note with it: 20 μg/ml. How it is done:
FIG. 16 is a graph showing the effect of sense and antisense ERV-9 U3 (SEQ ID NOs: 1, 2, 7, 8, 9, and 10) and U5 (SEQ ID NOs: 11 and 12) oligonucleotides on proliferation of HT1080 cells. Cells (4×10^4) were treated with oligonucleotide formulated in LIPOFECTAMINE™ at a concentration of 20 μg/ml for 72 hours. GFP sense oligonucleotide was used as a control to measure the non-specific cytotoxicity of phosphorothioate-based oligonucleotides. Antisense oligonucleotides G3139, GRN163, and MDM2 were also evaluated. Cell proliferation levels were expressed relative to cells transfected with GFP oligonucleotide. All U3 and U5 sense and antisense oligonucleotides inhibited cell proliferation to a greater extent that GFP control. In addition, with the exception of the U5 sense oligonucleotide, all U3 and U5 oligonucleotides inhibited cell proliferation better than the G3139, GRN163 and MDM2 antisense oligonucleotides.
as §3

Take “ERV-9 LTR U3 siRNA: siRNA duplex of the ERV9 LTR U3 region: CUCAAGGUUUGUAAACACACCAAUCAG and CUGAUUGGUGUGUUUACAAACCUUGAG (listed as RNA, chemistry not given here)”: the “cell proliferation as percentage of non-treated control” value in the series with MCF-7 cells and in the series with MDA-231 cells [1] was “inhibited cell proliferation better than RRM2 siRNAs” in each case.

For the substance “G3139: antisense oligonucleotide specific for Bcl-2, TCTCCCAGCGTGCGCCAT (listed as DNA, chemistry not given here) [Oligo G3139]”, the “cell proliferation relative to GFP oligonucleotide” value is “inhibited cell proliferation only at oligonucleotide concentrations of 20 μg/ml and 30 μg/ml” in [2]; “did not significantly inhibit cell proliferation at any of the three concentration levels” in [3]. Besides, the “cell proliferation relative to GFP oligonucleotide control” value with LNcaP cells was “did not inhibit cell proliferation at any VP16 concentration tested”; with MDA-231 cells [4], “inhibited cell proliferation only at a VP16 concentration of 50 ng/ml”. The “tumor growth in animal models” value with tumor was “has been previously shown to inhibit tumor growth in animal models”. For the same substance, the “cell proliferation relative to GFP oligonucleotide transfected control” value is recorded as “inhibited cell proliferation better than the GFP control oligonucleotide” in the series with MDA-231 cells [5] and “inhibited cell proliferation better than the GFP oligonucleotide control” in the series on HT1080 cells.

On to “GRN163: antisense oligonucleotide specific for telomerase, TAGGGTTAGACAA (listed as DNA, further chemistry not given here)”, for which the “cell proliferation relative to GFP oligonucleotide” value in series [2] is “inhibited cell proliferation only at concentrations of 10 μg/ml and 20 μg/ml”; in series [3] it was “did not significantly inhibit cell proliferation at any of the three concentration levels”. Further, the “cell proliferation relative to GFP oligonucleotide control” value is given as “did not inhibit cell proliferation at any VP16 concentration tested” with LNcaP cells and “inhibited cell proliferation only at a VP16 concentration of 50 ng/ml” with MDA-231 cells [4]. Further, the “tumor growth in animal models” value in the series with tumor is given as “has been previously shown to inhibit tumor growth in animal models”. Moreover, the “cell proliferation relative to GFP oligonucleotide transfected control” value in the series with MDA-231 cells [5] was “inhibited cell proliferation better than the GFP control oligonucleotide”.

Regarding “MDM2 antisense oligonucleotide: antisense oligonucleotide specific for MDM2, TGACACCTGTTCTCACTCAC (listed as DNA, chemistry not given here)”, the “cell proliferation relative to GFP oligonucleotide” value in series [2] is “inhibited cell proliferation only at concentrations of 10 μg/ml and 20 μg/ml”; in series [3] it was “inhibited cell proliferation only at a concentration of 10 μg/ml”. Besides, the “cell proliferation relative to GFP oligonucleotide control” value in the series on LNcaP cells is given as “inhibited cell proliferation better than GFP control only at a VP16 concentration of 30 ng/ml”; in the series on MDA-231 cells [4], “inhibited cell proliferation only at a VP16 concentration of 50 ng/ml”. Besides, the “tumor growth in animal models” value in the series on tumor is recorded as “has been previously shown to inhibit tumor growth in animal models”. The “cell proliferation relative to GFP oligonucleotide transfected control” value in the series on MDA-231 cells [5] is given as “inhibited cell proliferation better than the GFP control oligonucleotide”; in the series with HT1080 cells it was “inhibited cell proliferation better than the GFP oligonucleotide control”.

“U3AS4: ERV-9 U3 antisense oligonucleotide GCGGCGCTCGTCGGCGAGGCACGG, target nt 3096-3119 (AF064190) (listed as DNA, chemistry not given here) [Oligo U3AS4]”: the “cell proliferation relative to GFP oligonucleotide transfected control” value with HT1080 cells is “inhibited cell proliferation better than G3139, GRN163 and MDM2 oligonucleotides”.

For “U3AS5: ERV-9 U3 antisense oligonucleotide CCGACCGGTTCCGGTCTCGGCCGAGG, target nt 2792-2817 (AF064190) (listed as DNA, chemistry not given here) [Oligo U3AS5]”, the “cell proliferation relative to GFP oligonucleotide transfected control” value in the series with HT1080 cells was “inhibited cell proliferation better than G3139, GRN163 and MDM2 oligonucleotides”.

“U3S4: ERV-9 U3 sense oligonucleotide CCGAGCCTCGCCGACGAGCGCCGC, target nt 3096-3119 (AF064190) (listed as DNA, chemistry not given here) [Oligo U3S4]”: in the series with HT1080 cells, the “cell proliferation relative to GFP oligonucleotide transfected control” value was “inhibited cell proliferation better than G3139, GRN163 and MDM2 oligonucleotides”.

As to “U3S5: ERV-9 U3 sense oligonucleotide GGCTGGCCAAGGCCAGAGCCGGCTCC, target nt 2792-2817 (AF064190) (listed as DNA, chemistry not given here) [Oligo U3S5]”, the “cell proliferation relative to GFP oligonucleotide transfected control” value in the series with HT1080 cells is “inhibited cell proliferation better than G3139, GRN163 and MDM2 oligonucleotides”.

As to “U5AS: ERV-9 U5 antisense oligonucleotide GTTCTGATGTTTGGATGTGTTC, target nt 819-840 (AF064191) (listed as DNA, chemistry not given here) [Oligo U5AS]”, the “cell proliferation relative to GFP oligonucleotide transfected control” value with HT1080 cells is “inhibited cell proliferation better than G3139, GRN163 and MDM2 oligonucleotides”.

Take “U5S: ERV-9 U5 sense oligonucleotide GAACACATCCAAACATCAGAAC, target nt 819-840 (AF064191) (listed as DNA, chemistry not given here) [Oligo U5S]”: the “cell proliferation relative to GFP oligonucleotide transfected control” value in the series with HT1080 cells is listed as “inhibited cell proliferation better than the GFP oligonucleotide control”.
